In patent US20160038468A1 (priority 2013, published 2016):
Values after ≈ are worked out from the molar mass of the structure shown. Read-outs that look alike come from different tables or passages of the source.

Experiments:
Type in all cases: cell-based
Gardnerella vaginalis = assay: Agar dilution MIC (CLSI), Gardnerella vaginalis vaginal isolates; conditions: for Number of strains with indicated MIC: 100 samples
Atopobium vaginae = assay: Agar dilution MIC (CLSI), Atopobium vaginae vaginal isolates; conditions: for Number of strains with indicated MIC: 62 samples
Prevotella timonensis = assay: Agar dilution MIC (CLSI), Prevotella timonensis vaginal isolates; conditions: for MIC: read-out: Minimal Inhibitory Concentration (MIC); for Number of strains with indicated MIC: 33 samples
Anaerococcus tetradius = assay: Agar dilution MIC (CLSI), Anaerococcus tetradius vaginal isolates; conditions: for MIC: read-out: Minimal Inhibitory Concentration (MIC); for Number of strains with indicated MIC: 21 samples
Peptoniphilus harei = assay: Agar dilution MIC (CLSI), Peptoniphilus harei vaginal isolates; conditions: # tested 23
[1] = Gardnerella vaginalis, # tested 107
[2] = Fannyhessea vaginae, # tested 62
[3] = Hoylesella timonensis, # tested 33
[4] = Anaerococcus tetradius, # tested 21

CO[C@H]1/C=C/O[C@@]2(C)Oc3c(C)c(O)c4c(O)c(c5c(nc6cc(C)ccn65)c4c3C2=O)NC(=O)/C(C)=C\C=C\[C@H](C)[C@H](O)[C@@H](C)[C@@H](O)[C@@H](C)[C@H](OC(C)=O)[C@@H]1C [Rifaximin]
share of G vaginalis strains against which the agent had activity (Gardnerella vaginalis): ~90%
MIC50 (Gardnerella vaginalis; [1]): 2 µg/mL (≈ 2.54 µM)
MIC90 (Gardnerella vaginalis; [1]): > 128 µg/mL
Number of strains with indicated MIC (Gardnerella vaginalis; MIC 8 μg/ml): 3
Number of strains with indicated MIC (Gardnerella vaginalis; MIC >[…]): 11
number of Atopobium vaginae strains against which the agent had activity (Atopobium vaginae): 62 strains
MIC Range (Atopobium vaginae; # tested 62): 0.00375 to 0.25 µg/mL
MIC50 (Atopobium vaginae; [2]): 0.00375 µg/mL (≈ 0.00477 µM)
MIC90 (Atopobium vaginae; [2]): 0.015 µg/mL (≈ 0.0191 µM)
Number of strains with indicated MIC (Atopobium vaginae; MIC 0.00375 μg/ml): 43
Number of strains with indicated MIC (Atopobium vaginae; MIC 0.0075 μg/ml): 10
Number of strains with indicated MIC (Atopobium vaginae; MIC 0.015 μg/ml): 5
Number of strains with indicated MIC (Atopobium vaginae; MIC 0.06 μg/ml): 1
MIC Range (Prevotella timonensis; # tested 33): 0.00375 to 0.06 µg/mL
MIC (Prevotella timonensis; Hoylesella timonensis, isolate 301212 10): 0.00375 µg/mL (≈ 0.00477 µM)
MIC (Prevotella timonensis; Hoylesella timonensis, isolate 601080 5): 0.0075 µg/mL (≈ 0.00954 µM)
MIC (Prevotella timonensis; Hoylesella timonensis, isolate 601088 15): 0.015 µg/mL (≈ 0.0191 µM)
MIC (Prevotella timonensis; Hoylesella timonensis, isolate 601093 24): 0.015 µg/mL (≈ 0.0191 µM)
MIC (Prevotella timonensis; Hoylesella timonensis, isolate 601097 S): 0.015 µg/mL (≈ 0.0191 µM)
MIC (Prevotella timonensis; Hoylesella timonensis, isolate 601098 B): 0.015 µg/mL (≈ 0.0191 µM)
MIC (Prevotella timonensis; Hoylesella timonensis, isolate 601157 19): 0.015 µg/mL (≈ 0.0191 µM)
MIC (Prevotella timonensis; Hoylesella timonensis, isolate 601167 13): 0.06 µg/mL (≈ 0.0763 µM)
MIC (Prevotella timonensis; Hoylesella timonensis, isolate 601170 13): 0.015 µg/mL (≈ 0.0191 µM)
MIC (Prevotella timonensis; Hoylesella timonensis, isolate 601175 J): 0.015 µg/mL (≈ 0.0191 µM)
MIC (Prevotella timonensis; Hoylesella timonensis, isolate 601178 19): 0.015 µg/mL (≈ 0.0191 µM)
MIC (Prevotella timonensis; Hoylesella timonensis, isolate 601194 9B): 0.0075 µg/mL (≈ 0.00954 µM)
MIC (Prevotella timonensis; Hoylesella timonensis, isolate 601214 A): 0.015 µg/mL (≈ 0.0191 µM)
MIC (Prevotella timonensis; Hoylesella timonensis, isolate 601226 C): 0.015 µg/mL (≈ 0.0191 µM)
MIC (Prevotella timonensis; Hoylesella timonensis, isolate 601234 B): 0.015 µg/mL (≈ 0.0191 µM)
MIC (Prevotella timonensis; Hoylesella timonensis, isolate 601245 16): 0.015 µg/mL (≈ 0.0191 µM)
MIC (Prevotella timonensis; Hoylesella timonensis, isolate 601252 B): 0.015 µg/mL (≈ 0.0191 µM)
MIC (Prevotella timonensis; Hoylesella timonensis, isolate 601255 17): 0.015 µg/mL (≈ 0.0191 µM)
MIC (Prevotella timonensis; Hoylesella timonensis, isolate 601266 18): 0.015 µg/mL (≈ 0.0191 µM)
MIC (Prevotella timonensis; Hoylesella timonensis, isolate 601278 12): 0.015 µg/mL (≈ 0.0191 µM)
MIC (Prevotella timonensis; Hoylesella timonensis, isolate 601281 22): 0.015 µg/mL (≈ 0.0191 µM)
MIC (Prevotella timonensis; Hoylesella timonensis, isolate 601287 H): 0.015 µg/mL (≈ 0.0191 µM)
MIC (Prevotella timonensis; Hoylesella timonensis, isolate 601293 13): 0.015 µg/mL (≈ 0.0191 µM)
MIC (Prevotella timonensis; Hoylesella timonensis, isolate 601311 B): 0.015 µg/mL (≈ 0.0191 µM)
MIC (Prevotella timonensis; Hoylesella timonensis, isolate 601367 E): 0.015 µg/mL (≈ 0.0191 µM)
MIC (Prevotella timonensis; Hoylesella timonensis, isolate 601370 13): 0.03 µg/mL (≈ 0.0382 µM)
MIC (Prevotella timonensis; Hoylesella timonensis, isolate 601388 S): 0.015 µg/mL (≈ 0.0191 µM)
MIC (Prevotella timonensis; Hoylesella timonensis, isolate 601401 J): 0.015 µg/mL (≈ 0.0191 µM)
MIC (Prevotella timonensis; Hoylesella timonensis, isolate 601411 S): 0.015 µg/mL (≈ 0.0191 µM)
MIC (Prevotella timonensis; Hoylesella timonensis, isolate 601414 O): 0.03 µg/mL (≈ 0.0382 µM)
MIC (Prevotella timonensis; Hoylesella timonensis, isolate 601422 39): 0.015 µg/mL (≈ 0.0191 µM)
MIC (Prevotella timonensis; Hoylesella timonensis, isolate 601429 11): 0.015 µg/mL (≈ 0.0191 µM)
MIC (Prevotella timonensis; Hoylesella timonensis, isolate 601459 21): 0.015 µg/mL (≈ 0.0191 µM)
MIC50 (Prevotella timonensis; [3]): 0.015 µg/mL (≈ 0.0191 µM)
MIC90 (Prevotella timonensis; [3]): 0.015 µg/mL (≈ 0.0191 µM)
Number of strains with indicated MIC (Prevotella timonensis; MIC 0.00375 μg/ml): 1
Number of strains with indicated MIC (Prevotella timonensis; MIC 0.0075 μg/ml): 2
Number of strains with indicated MIC (Prevotella timonensis; MIC 0.015 μg/ml): 27
Number of strains with indicated MIC (Prevotella timonensis; MIC 0.03 μg/ml): 2
Number of strains with indicated MIC (Prevotella timonensis; MIC 0.06 μg/ml): 1
Susceptible (Prevotella timonensis; number (%) of isolates, # tested 33): 33 (100) μg/ml
MIC Range (Anaerococcus tetradius; # tested 21): 0.00375 to 0.125 µg/mL
MIC (Anaerococcus tetradius; Anaerococcus tetradius, isolate 601098V T): 0.06 µg/mL (≈ 0.0763 µM)
MIC (Anaerococcus tetradius; Anaerococcus tetradius, isolate 601103V 21): 0.06 µg/mL (≈ 0.0763 µM)
MIC (Anaerococcus tetradius; Anaerococcus tetradius, isolate 601175V I): 0.125 µg/mL (≈ 0.159 µM)
MIC (Anaerococcus tetradius; Anaerococcus tetradius, isolate 601202V 11): 0.06 µg/mL (≈ 0.0763 µM)
MIC (Anaerococcus tetradius; Anaerococcus tetradius, isolate 601212V 14): 0.06 µg/mL (≈ 0.0763 µM)
MIC (Anaerococcus tetradius; Anaerococcus tetradius, isolate 601221V 12): 0.00375 µg/mL (≈ 0.00477 µM)
MIC (Anaerococcus tetradius; Anaerococcus tetradius, isolate 601222V 15): 0.06 µg/mL (≈ 0.0763 µM)
MIC (Anaerococcus tetradius; Anaerococcus tetradius, isolate 601242V 17): 0.06 µg/mL (≈ 0.0763 µM)
MIC (Anaerococcus tetradius; Anaerococcus tetradius, isolate 601256V 9): 0.06 µg/mL (≈ 0.0763 µM)
MIC (Anaerococcus tetradius; Anaerococcus tetradius, isolate 601287V V): 0.06 µg/mL (≈ 0.0763 µM)
MIC (Anaerococcus tetradius; Anaerococcus tetradius, isolate 601305V J): 0.015 µg/mL (≈ 0.0191 µM)
MIC (Anaerococcus tetradius; Anaerococcus tetradius, isolate 601326V H): 0.06 µg/mL (≈ 0.0763 µM)
MIC (Anaerococcus tetradius; Anaerococcus tetradius, isolate 601340V 25): 0.06 µg/mL (≈ 0.0763 µM)
MIC (Anaerococcus tetradius; Anaerococcus tetradius, isolate 601342V N): 0.06 µg/mL (≈ 0.0763 µM)
MIC (Anaerococcus tetradius; Anaerococcus tetradius, isolate 601368V 42): 0.06 µg/mL (≈ 0.0763 µM)
MIC (Anaerococcus tetradius; Anaerococcus tetradius, isolate 601369V 12): 0.03 µg/mL (≈ 0.0382 µM)
MIC (Anaerococcus tetradius; Anaerococcus tetradius, isolate 601379V 25): 0.06 µg/mL (≈ 0.0763 µM)
MIC (Anaerococcus tetradius; Anaerococcus tetradius, isolate 601401V T): 0.06 µg/mL (≈ 0.0763 µM)
MIC (Anaerococcus tetradius; Anaerococcus tetradius, isolate 601429V 15): 0.015 µg/mL (≈ 0.0191 µM)
MIC (Anaerococcus tetradius; Anaerococcus tetradius, isolate 601450V 22): 0.06 µg/mL (≈ 0.0763 µM)
MIC (Anaerococcus tetradius; Anaerococcus tetradius, isolate 602375V 22): 0.015 µg/mL (≈ 0.0191 µM)
MIC50 (Anaerococcus tetradius; [4]): 0.06 µg/mL (≈ 0.0763 µM)
MIC90 (Anaerococcus tetradius; [4]): 0.06 µg/mL (≈ 0.0763 µM)
Number of strains with indicated MIC (Anaerococcus tetradius; MIC 0.00375 μg/ml): 1
Number of strains with indicated MIC (Anaerococcus tetradius; MIC 0.015 μg/ml): 3
Number of strains with indicated MIC (Anaerococcus tetradius; MIC 0.03 μg/ml): 1
Number of strains with indicated MIC (Anaerococcus tetradius; MIC 0.06 μg/ml): 15
Number of strains with indicated MIC (Anaerococcus tetradius; MIC […]): 1
MIC Range (Peptoniphilus harei): 0.00375 to 0.03 µg/mL
